# Measurements from patent US9828630B2, “Methods of enhancing genetic diagnosis” (BioLamina AB, priority 2011, dated 2017).
# Legend:
# hES cell lines = test: Karyotyping; format: cell-based, human; settings: HS181 12 and H1 10 passages in O3; H1 7 passages in TeSR2
# Method: Karyotyping of the cell lines was carried out using standard Q-banding techniques. Samples of cells were treated with colcemid KaryoMAX (0.1 μg/ml; Gibco Invitrogen Corporation) for up to 4 hours, followed by dissociation with Trypsin/EDTA solution (Gibco Invitrogen Corporation). The cells were pelleted via centrifugation and re-suspended in pre-warmed 0.0375M KCl hypotonic solution and incubated for 10 minutes. Following centrifugation, the cells were resuspended in fixative (3:1 methanol:acetic acid). Metaphase spreads were prepared on glass microscope slides and G-banded by brief exposure to trypsin and stained with 4:1 Gurr's/Leishmann's stain (Sigma-Aldrich Co.). A minimum of 10 metaphase spreads were analyzed and additional 20 were counted.
# human ES cells [1] = test: Cell survival assay, 24 hours (1 day) after plating from single cell suspension; format: cell-based; settings: for adhesion / survival without additives compared with ROCK inhibitor treated cells: 1 day (24 hours) after plating; for survival / attachment of dissociated hES cells 24 hours (one day) after plating: single cell suspension, O3 medium
# Method: (§1) The assay was performed as described (Extracellular Matrix Protocols, 2000). Briefly, 96-well plates were coated by extracellular matrix proteins as described above and blocked by O3 medium containing bovine serum albumin. The ES cells were plated at a cell density of 600 cell/mm^2 upon extracellular matrix-coated plates and were left to adhere for either 1 hour or 1 day at the cell incubator. Non-adherent cells were washed away, and adherent cells were fixed for 20 min by 5% glutaraldehyde, stained by 0.1% Crystal Violet.
# The survival assay was performed as described for the cell adhesion assay above, except that the cells were left in the cell incubator for 24 hours. For inhibition of survival assay, the cells were kept in a medium with function blocking antibodies at the concentrations recommended by the manufacturer or pathway inhibitors at concentrations indicated in the text for 30 minutes, and then plated on the coated dishes. All the experiments were performed in quadruplicate.
# Pluripotent hES cells express α1, α5, β1, β2 and γ1 laminin chains. To compare the adhesion and clonal survival of hES cells plated from single cell suspension to different coating substrata, hES cells growing as monolayers on LN-511 or as clusters on a feeder layer were trypsinized into single cell suspension in O3 medium and plated on cell culture dishes coated with Matrigel, LN-111, LN-511, LN-521 or a mixture of LN-511 and LN-521, in the absence or presence of a ROCK inhibitor (Y-27632) and analyzed after 24 hours.
# human ES cells [2] = test: Cell adhesion assay, 1 hour after plating on coated plates; format: cell-based
# Method: as §1
# Briefly, 96-well plates were coated by extracellular matrix proteins as described above and blocked by O3 medium containing bovine serum albumin. The ES cells were plated at cell density of 50,000 cells/cm^2 onto extracellular matrix-coated plates and left to adhere for 1 hour in a cell incubator. After that the plates were washed 3 times with the medium to remove the non-adherent cells, and then the adherent cells were fixed for 20 minutes by 5% glutaraldehyde, stained by 0.1% Crystal Violet. (Kebo Lab, Spanga, Sweden, http://www.kebolab.se). After one hour and 3 washes with water, Crystal Violet was extracted with 10% acetic acid and quantified by measuring optical density at 570 nm. All the experiments were performed in quadruplicate.
# ES cells = test: Embryoid body formation; format: cell-based, human; settings: cells cultured on LN-521, all three cases
# Method: ES cells from LN-521 coated cell culture dishes were exposed to TrypLE™ Select for one minute at 37° C., 5% CO2, washes two times with a medium, broken into large pieces and cultured in suspension in low adhesion plates. The medium used for this was Knockout DMEM (GIBCO Invitrogen Corporation) supplemented with 2 mM L-glutamine, 20% fetal calf serum (GIBCO Invitrogen Corporation), 0.1 mM β-mercaptoethanol (GIBCO Invitrogen Corporation) and 1% non-essential amino acids (GIBCO Invitrogen Corporation). After 1-2 weeks in suspension, the embryoid bodies were transferred onto gelatin coated tissue cell culture 96-well plates (Sarstedt), cultured for 1-2 weeks, then fixed, stained with antibodies against markers of all three embryonic germ line layers (smooth muscle actin, MAP-2 and α-fetoprotein) and analyzed as described above for immunofluorescence.
# OCT4 = test: FACS analysis for OCT4; format: cell-based, human; settings: after several single cell suspension passages, O3 medium, FIG. 9 and 10
# Method: OCT4 expression was analyzed as described in Ludwig, T. E. et al. Derivation of human embryonic stem cells in defined conditions. Nat. Biotechnol. 24, 185-187 (2006). Cells were run on FACSCalibur Flow Cytometer (Becton Dickinson). Data were analyzed with CellQuest software (Becton Dickinson).
substance,measurement,setting,value
"LN-521: protein formed by joining laminin α5, β2 and γ1 chains; human recombinant, produced in HEK293 cells",karyotype,hES cell lines,normal
same,adhesion / survival without additives compared with ROCK inhibitor treated cells,human ES cells [1],similar
same,adhesion / survival without additives compared with ROCK inhibitor treated cells,human ES cells [1]; listed as LN-532,no ROCK inhibitor is necessary
same,survival of cells compared with LN-511,"human ES cells [1]; 24 hours, no ROCK inhibitor",significantly higher
same,cell shape 24 hours after plating on LN-521,human ES cells [1]; absence or presence of ROCK inhibitor,round
same,survival relative to Matrigel,human ES cells [1]; exogenous bFGF removed from the O3 medium,20 times
same,survival 24 hours after plating,"human ES cells [1]; medium lacking all growth factors of the TeSR1 formulation (bFGF, LiCl, GABA, pipecolic acid, TGFβ)",survived
same,survival after 24 hours relative to LN-511,human ES cells [1]; no ROCK inhibitor,three
same,survival / attachment of dissociated hES cells 24 hours (one day) after plating,human ES cells [1]; no ROCK inhibitor,did so as single cells
same,survival / attachment of dissociated hES cells 24 hours (one day) after plating,"human ES cells [1]; no ROCK inhibitor, listed as human r-laminin-521",survived
same,survival / attachment of dissociated hES cells 24 hours (one day) after plating,"human ES cells [1]; no ROCK inhibitor, listed as laminin-521",survived and started to proliferate
same,adhesion of human ES cells after 1 hour,"human ES cells [2]; O3 medium without any additives, without Y-27632, FIG. 6",roughly the same
same,spreading of the cells after one hour compared with Matrigel or LN-111,"human ES cells [2]; dissociated hES cells, not shown",clearly better
same,"embryoid body formation with markers of mesoderm, ectoderm and endoderm",ES cells,retained the competence to form embryoid bodies
same,percentage of Oct4 positive (pluripotent) cells compared with Matrigel,OCT4,much higher percentage
